In patent publication US20130115171A1, “NAV1.7-RELATED ASSAYS” (priority 2011, published 2013):
“Also recorded” adds a separate entry of the source. Where two headings read alike, the source gives them in different places.

Key:
male rats = settings: rat, in vivo
Method: Veratridine was injected intra-plantar at 30 micrograms.
Known preclinical and clinical analgesics were tested to see if they could prevent veratridine-induced behaviors.

NaV1.7 [1] = type: in vivo, mouse; settings: for Flinching response to paw injection: one microgram
Text: Activation of one, some, or all of the nine sodium channel isoforms might produce painful behaviors. […] All behavioral experiments were done with the observer blinded as to the mouse genotype or treatment.

male CD1 mice = type: in vivo, mouse
NaV1.4 = NaV1.4 (Rattus norvegicus, UniProt P15390); settings: read-out: TTX IC50; cited from earlier work
NaV1.3 = NaV1.3 (Rattus norvegicus, UniProt P08104); settings: read-out: TTX IC50; cited from earlier work
NaV1.7 [2] = target: NaV1.7 (Rattus norvegicus, UniProt O08562); settings: read-out: TTX IC50; cited from earlier work
NaV1.8 = NaV1.8 (Rattus norvegicus, UniProt Q62968); settings: read-out: TTX IC50; cited from earlier work
NaV1.6 = NaV1.6 (Rattus norvegicus, UniProt O88420); settings: read-out: TTX IC50; cited from earlier work
hNaV1.7 = hNaV1.7 (Homo sapiens, UniProt Q15858)
hNaV1.7, sequence (Q15858 whole entry): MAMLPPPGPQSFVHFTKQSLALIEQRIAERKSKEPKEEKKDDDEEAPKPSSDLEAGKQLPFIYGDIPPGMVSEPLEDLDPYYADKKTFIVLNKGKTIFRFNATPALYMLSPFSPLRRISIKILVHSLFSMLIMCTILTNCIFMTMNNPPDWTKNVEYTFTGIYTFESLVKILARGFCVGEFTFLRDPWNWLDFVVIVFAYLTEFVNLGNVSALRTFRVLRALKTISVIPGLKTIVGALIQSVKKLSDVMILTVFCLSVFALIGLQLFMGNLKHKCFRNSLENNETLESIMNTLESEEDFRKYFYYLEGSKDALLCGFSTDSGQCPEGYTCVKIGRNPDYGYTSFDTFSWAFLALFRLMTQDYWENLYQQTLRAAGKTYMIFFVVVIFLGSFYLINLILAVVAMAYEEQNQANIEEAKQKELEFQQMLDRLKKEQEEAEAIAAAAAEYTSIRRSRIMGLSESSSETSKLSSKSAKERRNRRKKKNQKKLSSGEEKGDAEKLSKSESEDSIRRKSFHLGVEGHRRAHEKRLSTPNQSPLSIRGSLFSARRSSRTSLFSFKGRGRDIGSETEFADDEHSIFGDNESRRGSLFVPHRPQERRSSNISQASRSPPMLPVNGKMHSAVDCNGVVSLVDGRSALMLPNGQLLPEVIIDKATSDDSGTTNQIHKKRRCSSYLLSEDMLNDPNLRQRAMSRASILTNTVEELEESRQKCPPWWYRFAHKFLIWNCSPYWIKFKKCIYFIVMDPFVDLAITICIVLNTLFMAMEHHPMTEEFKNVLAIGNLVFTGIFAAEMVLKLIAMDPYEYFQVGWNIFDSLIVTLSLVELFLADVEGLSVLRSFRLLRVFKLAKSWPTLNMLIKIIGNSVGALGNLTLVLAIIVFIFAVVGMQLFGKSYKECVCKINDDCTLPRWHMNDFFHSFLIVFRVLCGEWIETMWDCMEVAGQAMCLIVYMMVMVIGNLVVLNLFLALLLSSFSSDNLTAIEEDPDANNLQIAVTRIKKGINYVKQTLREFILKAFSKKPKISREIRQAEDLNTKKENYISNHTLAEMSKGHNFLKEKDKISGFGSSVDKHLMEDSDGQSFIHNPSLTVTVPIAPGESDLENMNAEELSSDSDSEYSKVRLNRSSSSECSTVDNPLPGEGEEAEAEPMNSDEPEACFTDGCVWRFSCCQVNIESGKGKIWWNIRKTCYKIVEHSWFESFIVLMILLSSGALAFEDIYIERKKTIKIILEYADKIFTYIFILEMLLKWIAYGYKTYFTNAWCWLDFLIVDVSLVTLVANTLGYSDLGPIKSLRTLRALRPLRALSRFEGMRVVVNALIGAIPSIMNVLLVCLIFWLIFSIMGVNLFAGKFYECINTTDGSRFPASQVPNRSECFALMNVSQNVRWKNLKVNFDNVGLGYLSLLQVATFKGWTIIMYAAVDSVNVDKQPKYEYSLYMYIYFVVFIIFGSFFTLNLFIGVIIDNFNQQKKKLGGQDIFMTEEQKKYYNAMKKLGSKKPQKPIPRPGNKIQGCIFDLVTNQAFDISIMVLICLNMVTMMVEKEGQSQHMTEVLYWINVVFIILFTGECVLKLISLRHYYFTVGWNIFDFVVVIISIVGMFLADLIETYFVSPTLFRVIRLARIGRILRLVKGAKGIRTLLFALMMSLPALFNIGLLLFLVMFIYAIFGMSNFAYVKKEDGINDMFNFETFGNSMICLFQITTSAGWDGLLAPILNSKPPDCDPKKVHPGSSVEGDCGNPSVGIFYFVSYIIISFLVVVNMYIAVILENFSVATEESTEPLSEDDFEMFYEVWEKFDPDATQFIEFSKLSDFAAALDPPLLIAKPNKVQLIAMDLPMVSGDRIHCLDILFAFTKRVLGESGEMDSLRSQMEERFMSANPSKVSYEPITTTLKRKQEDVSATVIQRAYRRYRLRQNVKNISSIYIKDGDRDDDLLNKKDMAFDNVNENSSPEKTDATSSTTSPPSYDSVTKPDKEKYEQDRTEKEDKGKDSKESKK

NaV1.8, sequence (Q62968 whole entry, looked up): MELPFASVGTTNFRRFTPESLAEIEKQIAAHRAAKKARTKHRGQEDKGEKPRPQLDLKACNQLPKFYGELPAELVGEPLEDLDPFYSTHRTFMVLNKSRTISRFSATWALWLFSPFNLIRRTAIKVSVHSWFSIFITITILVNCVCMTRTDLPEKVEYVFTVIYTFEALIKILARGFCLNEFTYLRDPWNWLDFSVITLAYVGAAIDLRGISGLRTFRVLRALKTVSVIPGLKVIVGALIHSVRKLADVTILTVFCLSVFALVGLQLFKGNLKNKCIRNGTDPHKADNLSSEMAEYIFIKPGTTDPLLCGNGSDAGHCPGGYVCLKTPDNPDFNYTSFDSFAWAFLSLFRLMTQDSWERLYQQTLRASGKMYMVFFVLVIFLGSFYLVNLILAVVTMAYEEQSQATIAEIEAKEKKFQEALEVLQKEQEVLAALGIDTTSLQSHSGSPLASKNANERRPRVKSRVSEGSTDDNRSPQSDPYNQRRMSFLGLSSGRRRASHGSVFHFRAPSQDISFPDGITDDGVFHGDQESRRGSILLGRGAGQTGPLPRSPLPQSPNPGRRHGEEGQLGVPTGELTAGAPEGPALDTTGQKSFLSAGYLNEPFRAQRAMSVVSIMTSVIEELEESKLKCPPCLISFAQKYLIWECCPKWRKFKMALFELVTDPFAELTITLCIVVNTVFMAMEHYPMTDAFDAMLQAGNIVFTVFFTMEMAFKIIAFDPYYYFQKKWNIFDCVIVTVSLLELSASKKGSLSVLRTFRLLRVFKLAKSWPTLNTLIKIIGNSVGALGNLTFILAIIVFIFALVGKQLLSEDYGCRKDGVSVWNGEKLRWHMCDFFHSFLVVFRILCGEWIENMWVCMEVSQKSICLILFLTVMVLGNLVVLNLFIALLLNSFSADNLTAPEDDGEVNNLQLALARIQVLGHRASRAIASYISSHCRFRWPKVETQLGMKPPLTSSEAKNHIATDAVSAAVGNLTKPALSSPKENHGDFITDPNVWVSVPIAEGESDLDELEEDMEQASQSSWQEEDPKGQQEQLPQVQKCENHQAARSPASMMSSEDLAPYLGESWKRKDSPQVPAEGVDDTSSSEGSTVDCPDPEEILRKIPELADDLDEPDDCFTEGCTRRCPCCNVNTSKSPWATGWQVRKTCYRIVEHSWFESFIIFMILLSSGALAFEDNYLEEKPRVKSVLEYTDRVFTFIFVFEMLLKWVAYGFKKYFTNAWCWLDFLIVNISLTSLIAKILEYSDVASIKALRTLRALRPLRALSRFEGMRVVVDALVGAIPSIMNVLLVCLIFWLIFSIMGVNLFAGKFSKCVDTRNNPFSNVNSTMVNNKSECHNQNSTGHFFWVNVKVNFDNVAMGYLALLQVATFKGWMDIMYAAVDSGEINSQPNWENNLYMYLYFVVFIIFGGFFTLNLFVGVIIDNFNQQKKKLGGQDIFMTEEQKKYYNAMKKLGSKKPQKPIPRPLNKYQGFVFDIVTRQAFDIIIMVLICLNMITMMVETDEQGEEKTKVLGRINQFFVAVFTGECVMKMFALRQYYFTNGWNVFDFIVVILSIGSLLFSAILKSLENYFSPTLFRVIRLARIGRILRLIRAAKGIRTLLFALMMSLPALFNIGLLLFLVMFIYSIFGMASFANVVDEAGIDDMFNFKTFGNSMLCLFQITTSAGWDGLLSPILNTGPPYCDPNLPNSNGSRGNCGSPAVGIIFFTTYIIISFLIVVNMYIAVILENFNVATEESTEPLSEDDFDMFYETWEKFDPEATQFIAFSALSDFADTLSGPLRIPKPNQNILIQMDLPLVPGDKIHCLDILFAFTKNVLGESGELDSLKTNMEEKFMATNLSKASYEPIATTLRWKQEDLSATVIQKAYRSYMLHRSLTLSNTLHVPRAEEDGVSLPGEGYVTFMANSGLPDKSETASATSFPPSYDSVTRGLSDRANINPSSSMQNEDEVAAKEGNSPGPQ

For `CN1C(=O)CN=C(c2ccccc2)c2cc(Cl)ccc21` [Diazepam], the “Inhibition of veratridine-induced pain-like behaviors (licking and paw-flinching)” value (“Inhibition” below) (male rats) was “ineffective”, the “Significant Reversal of Edema” value (male rats) was “No” and the “Significant Reversal of Flinching” value (male rats) was “No”. For the same molecule, the “Significant Reversal of Lifting” value (male rats) was “No”.
In the case of `CNCC[C@H](Oc1cccc2ccccc12)c1cccs1` [Duloxetine, duloxetine], the “Inhibition” value (male rats) is reported as “inhibited somewhat” and the “Significant Reversal of Edema” value (male rats) is reported as “No”.
With `NCC1(CC(=O)O)CCCCC1` [Gabapentin, gabapentin] the “Inhibition” value (male rats) was “not all” and the “Significant Reversal of Edema” value (male rats) was “No”.
In the case of `Cc1cccc(C)c1OCC(C)N` (stereo not shown) [Mexiletine, mexiletine], the “Prevention of veratridine-induced flinching / lifting/licking” value (NaV1.7 [1]; mouse, in vivo) is reported as “prevents the flinching behavior; also recorded: prevented flinching”, the “Block of effects of veratridine (total lifting time)” value (male CD1 mice; mouse, in vivo, ip, 30 mg/kg) is reported as “blocked” and the “Prevention of lifting/licking response to deltamethrin” value (male CD1 mice; mouse, in vivo, ip, 30 mg/kg) is reported as “prevented the lifting/licking response”. For the same molecule, the “Prevention of lifting/licking response to grayanotoxin III” value (male CD1 mice; mouse, in vivo, ip, 30 mg/kg) was “prevented the lifting/licking response”, the “Inhibition” value (male rats) was “inhibited fully” and the “Significant Reversal of Edema” value (male rats) was “Yes”. The “Significant Reversal of Flinching” value (male rats) was “Yes”, the “Significant Reversal of Lifting” value (male rats) was “Yes” and the “Lifting and flinching behaviors” value (male rats; po) was “prevented in a dose-dependent manner”.
For `CN1CC[C@]23c4c5ccc(O)c4O[C@H]2[C@@H](O)C=C[C@H]3[C@H]1C5` [Morphine, morphine], the “Inhibition” value (male rats) was “inhibited somewhat” and the “Significant Reversal of Edema” value (male rats) was “No”.
In the case of `COc1ccc2cc([C@H](C)C(=O)O)ccc2c1` [Naproxen, naproxen], the “Significant Reversal of Edema” value (male rats) is reported as “No”.
In the case of `NC1=N[C@H](O)[C@H]2[C@H]3O[C@]4(O)O[C@@H]([C@@H](O)[C@@]2(N1)[C@@H]4O)[C@]3(O)CO` [TTX, tetrodotoxin], the IC50 (NaV1.4) is listed as 5 nM, the IC50 (NaV1.3) is listed as 2 to 15 nM and the IC50 (NaV1.7 [2]) is listed as 4 nM. For the same molecule, the IC50 (NaV1.8) was greater than 50000 nM and the IC50 (NaV1.6) was 1 nM.
With `CC1(C)[C@H](C(=O)O[C@H](C#N)c2cccc(Oc3ccccc3)c2)[C@@H]1C=C(Br)Br` [deltamethrin] the “Lifting/licking response (total flinches) after injection” value (male CD1 mice; male CD1 mice, 10 microgram suspension dose of deltamethrin) was “produced a lifting/licking response”.
For `CC1(O)CC23CC(O)C4(O)C(CC(O)C4(C)C)C(C)(O)C2CCC1C3O` (stereo not shown) [grayanotoxin III], the “Activation of hNaV1.7” value (hNaV1.7) was “activated hNaV1.7; also recorded: activated NaV1.7”, the “Voltage at which sodium currents start to activate” value (hNaV1.7) was −95 mV and the “Lifting/licking response (total flinches) after injection” value (male CD1 mice; mouse, in vivo) was “produced a lifting/licking response”.
In the case of `COc1ccc(C(=O)O[C@H]2CC[C@@]3(C)[C@@H]4CC[C@@H]5C3(C[C@@]3(O)[C@@H]6CN7C[C@@H](C)CC[C@H]7[C@@](C)(O)[C@@]6(O)[C@@H](O)C[C@@]53O)O[C@]24O)cc1OC` [veratridine, 4α,9-Epoxy-3β-veratroyloxy-5β-cevan-4β,12,14,16β,17,20-hexaol], the “Flinching response to paw injection” value (NaV1.7 [1]; global NaV1.7 knockout mice) is reported as “no flinching or licking behavior; also recorded: no effect; also recorded: no response”, the “Flinching response to paw injection” value (NaV1.7 [1]; wild type heterozygote mice) is reported as “robust flinching behavior; also recorded: robust flinching response” and the “Lifting behavior after i.pl. injection” value (male CD1 mice; mouse, in vivo) is reported as “caused equivalent lifting behavior”. For the same molecule, the “Pain-related behaviors (paw lifting/licking, flinching) after injection into the paw” value (male rats) was “caused two separate pain-related behaviors” and the “Side effects at higher doses” value (male rats) was “variable neurological side effects”.
